Test results taken from publication PMC12749166, “Fragment-based drug design of a bacterial kinase inhibitor capable of increasing the antibiotic sensitivity of clinical isolates” (Communications Chemistry, 2025).

Columns and labels:
[1] = test system: P. aeruginosa C0307; test: Checkerboard assay of 83 with kanamycin A; format: cell-based; conditions: for checkerboard well reading (growth): Supp. Figure 3 B
[2] = test system: S. aureus C0032; test: Bacterial growth kinetics over 24 h; format: cell-based; conditions: for Increase of latency: 500 µM 83

## Clc1cnc2[nH]ccc2c1-c1ccn[nH]1 [Compound 83]
[1]; 83 2 µg.mL-1, kanamycin A 2 µg.mL-1
  checkerboard well reading (growth): 1.163
[1]; 83 2 µg.mL-1, kanamycin A 4 µg.mL-1
  checkerboard well reading (growth): 1.143
[1]; 83 2 µg.mL-1, kanamycin A 8 µg.mL-1
  checkerboard well reading (growth): 1.140
[1]; 83 2 µg.mL-1, kanamycin A 16 µg.mL-1
  checkerboard well reading (growth): 1.101
[1]; 83 2 µg.mL-1, kanamycin A 32 µg.mL-1
  checkerboard well reading (growth): 1.112
[1]; 83 2 µg.mL-1, kanamycin A 64 µg.mL-1
  checkerboard well reading (growth): 0.172
[1]; 83 2 µg.mL-1, kanamycin A 128 µg.mL-1
  checkerboard well reading (growth): 0.038
[1]; 83 4 µg.mL-1, kanamycin A 0 µg.mL-1
  checkerboard well reading (growth): 1.132
[1]; 83 4 µg.mL-1, kanamycin A 2 µg.mL-1
  checkerboard well reading (growth): 1.139
[1]; 83 4 µg.mL-1, kanamycin A 4 µg.mL-1
  checkerboard well reading (growth): 1.161
[1]; 83 4 µg.mL-1, kanamycin A 8 µg.mL-1
  checkerboard well reading (growth): 1.123
[1]; 83 4 µg.mL-1, kanamycin A 16 µg.mL-1
  checkerboard well reading (growth): 1.163
[1]; 83 4 µg.mL-1, kanamycin A 32 µg.mL-1
  checkerboard well reading (growth): 1.149
[1]; 83 4 µg.mL-1, kanamycin A 64 µg.mL-1
  checkerboard well reading (growth): 0.250
[1]; 83 4 µg.mL-1, kanamycin A 128 µg.mL-1
  checkerboard well reading (growth): 0.041
[1]; 83 8 µg.mL-1, kanamycin A 0 µg.mL-1
  checkerboard well reading (growth): 1.480
[1]; 83 8 µg.mL-1, kanamycin A 2 µg.mL-1
  checkerboard well reading (growth): 1.120
[1]; 83 8 µg.mL-1, kanamycin A 4 µg.mL-1
  checkerboard well reading (growth): 1.107
[1]; 83 8 µg.mL-1, kanamycin A 8 µg.mL-1
  checkerboard well reading (growth): 1.138
[1]; 83 8 µg.mL-1, kanamycin A 16 µg.mL-1
  checkerboard well reading (growth): 1.202
[1]; 83 8 µg.mL-1, kanamycin A 32 µg.mL-1
  checkerboard well reading (growth): 1.141
[1]; 83 8 µg.mL-1, kanamycin A 64 µg.mL-1
  checkerboard well reading (growth): 0.170
[1]; 83 8 µg.mL-1, kanamycin A 128 µg.mL-1
  checkerboard well reading (growth): 0.040
[1]; 83 16 µg.mL-1, kanamycin A 0 µg.mL-1
  checkerboard well reading (growth): 1.350
[1]; 83 16 µg.mL-1, kanamycin A 2 µg.mL-1
  checkerboard well reading (growth): 1.145
[1]; 83 16 µg.mL-1, kanamycin A 4 µg.mL-1
  checkerboard well reading (growth): 1.177
[1]; 83 16 µg.mL-1, kanamycin A 8 µg.mL-1
  checkerboard well reading (growth): 1.181
[1]; 83 16 µg.mL-1, kanamycin A 16 µg.mL-1
  checkerboard well reading (growth): 1.121
[1]; 83 16 µg.mL-1, kanamycin A 32 µg.mL-1
  checkerboard well reading (growth): 1.161
[1]; 83 16 µg.mL-1, kanamycin A 64 µg.mL-1
  checkerboard well reading (growth): 0.077
[1]; 83 16 µg.mL-1, kanamycin A 128 µg.mL-1
  checkerboard well reading (growth): 0.041
[1]; 83 32 µg.mL-1, kanamycin A 0 µg.mL-1
  checkerboard well reading (growth): 1.542
[1]; 83 32 µg.mL-1, kanamycin A 2 µg.mL-1
  checkerboard well reading (growth): 1.314
[1]; 83 32 µg.mL-1, kanamycin A 4 µg.mL-1
  checkerboard well reading (growth): 1.373
[1]; 83 32 µg.mL-1, kanamycin A 8 µg.mL-1
  checkerboard well reading (growth): 1.519
[1]; 83 32 µg.mL-1, kanamycin A 16 µg.mL-1
  checkerboard well reading (growth): 1.301
[1]; 83 32 µg.mL-1, kanamycin A 32 µg.mL-1
  checkerboard well reading (growth): 1.153
[1]; 83 32 µg.mL-1, kanamycin A 64 µg.mL-1
  checkerboard well reading (growth): 0.041
[1]; 83 32 µg.mL-1, kanamycin A 128 µg.mL-1
  checkerboard well reading (growth): 0.042
[1]; 83 64 µg.mL-1, kanamycin A 0 µg.mL-1
  checkerboard well reading (growth): 1.274
[1]; 83 64 µg.mL-1, kanamycin A 2 µg.mL-1
  checkerboard well reading (growth): 1.335
[1]; 83 64 µg.mL-1, kanamycin A 4 µg.mL-1
  checkerboard well reading (growth): 1.176
[1]; 83 64 µg.mL-1, kanamycin A 8 µg.mL-1
  checkerboard well reading (growth): 1.404
[1]; 83 64 µg.mL-1, kanamycin A 16 µg.mL-1
  checkerboard well reading (growth): 1.087
[1]; 83 64 µg.mL-1, kanamycin A 32 µg.mL-1
  checkerboard well reading (growth): 0.939
[1]; 83 64 µg.mL-1, kanamycin A 64 µg.mL-1
  checkerboard well reading (growth): 0.044
[1]; 83 64 µg.mL-1, kanamycin A 128 µg.mL-1
  checkerboard well reading (growth): 0.044
[1]; 83 128 µg.mL-1, kanamycin A 0 µg.mL-1
  checkerboard well reading (growth): 1.377
[1]; 83 128 µg.mL-1, kanamycin A 2 µg.mL-1
  checkerboard well reading (growth): 1.277
[1]; 83 128 µg.mL-1, kanamycin A 4 µg.mL-1
  checkerboard well reading (growth): 1.324
[1]; 83 128 µg.mL-1, kanamycin A 8 µg.mL-1
  checkerboard well reading (growth): 1.318
[1]; 83 128 µg.mL-1, kanamycin A 16 µg.mL-1
  checkerboard well reading (growth): 0.963
[1]; 83 128 µg.mL-1, kanamycin A 32 µg.mL-1
  checkerboard well reading (growth): 0.366
[1]; 83 128 µg.mL-1, kanamycin A 64 µg.mL-1
  checkerboard well reading (growth): 0.038
[1]; 83 128 µg.mL-1, kanamycin A 128 µg.mL-1
  checkerboard well reading (growth): 0.043
[1]; absence of antibiotics, 83 from 0 to 128 µg mL^−1 (585 µM)
  Impact of 83 alone on bacterial growth: no impact on bacterial growth
[2]; 1024 µg mL^−1 kanamycin A
  Increase of latency: 14 h
[2]; 2048 µg mL^−1 kanamycin A
  Increase of latency: 18 h
[2]; 4096 µg mL^−1 kanamycin A, 250 and 500 µM 83, after 24 h
  Growth: no growth was detected
[2]; 256 and 512 µg mL^−1 kanamycin A, 500 µM 83, absence of imipenem
  Effect on growth kinetics: slowed growth kinetics
[2]; up to 500 µM (109 µg mL^−1), no kanamycin A, 24 h
  Toxicity of 83 alone on bacteria: no toxicity
